Laboratory results as given in patent US11505811B2, “Method for the preparation of 2,4-dihydroxybutyrate” (ADISSEO FRANCE S.A.S., priority 2012, dated 2022).
Positions count from the first letter of the chain named. Read-outs that look alike come from different tables or passages of the source.

Experiments:
Type in all cases: biochemical
[1] = molecular target: T1, Escherichia coli malate dehydrogenase Ec-Mdh variant R81A M85Q I12V, SEQ ID No. 108 (Escherichia coli, UniProt P61889, I12V/M85Q/R81A); assay: OHB/oxaloacetate reductase assay, Ec-Mdh R81A M85Q I12V; conditions: up to 0.5 mM oxaloacetate; pH 7, 37° C.; read-out: Km (OAA)
T1 sequence (P61889 1-312 I12V/R81A/M85Q): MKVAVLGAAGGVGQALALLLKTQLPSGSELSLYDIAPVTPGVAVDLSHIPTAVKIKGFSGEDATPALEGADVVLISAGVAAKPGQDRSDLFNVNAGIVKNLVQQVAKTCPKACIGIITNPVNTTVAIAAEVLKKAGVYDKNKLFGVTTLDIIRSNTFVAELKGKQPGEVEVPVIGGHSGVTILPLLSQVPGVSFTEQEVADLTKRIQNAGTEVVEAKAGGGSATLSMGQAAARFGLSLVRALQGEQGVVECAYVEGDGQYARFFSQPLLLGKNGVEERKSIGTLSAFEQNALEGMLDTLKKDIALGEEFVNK
Protocol: (§1) Enzymatic assays: The reaction mixture contained 60 mM Hepes (pH 7), 50 mM potassium chloride, 5 mM MgCl2, 0.25 mM NADH, (optionally 5 mM fructose-1,6-bisphosphate) (all products from Sigma), and appropriate amounts of purified malate or lactate dehydrogenase or cell extract. Reactions were started by adding appropriate amounts of 2-oxo-4-hydroxybutyrate (OHB), pyruvate, or oxaloacetate (OAA). Enzymatic assays were carried out at 37° C. in 96-well flat bottomed microtiter plates in a final volume of 250 μL. The reactions were followed by the characteristic absorption of NADH at 340 nm (εNADH=6.22 mM^−1 cm^−1) in a microplate reader (BioRad 680XR).
(§2) Site-directed mutagenesis of the mdh gene from E. coli was carried out as described in Example 2 using the primers listed in Table 5. Plasmid pET28-Ec-mdh was used as the template.
(§3) Mutant enzymes were expressed, purified and tested for OHB and oxaloacetate reductase activity as described in Example 1. […] The mutation R81A in Ec-Mdh was combined with additional changes in the protein sequence.

[2] = molecular target: T2, Escherichia coli malate dehydrogenase Ec-Mdh variant R81A M85Q, SEQ ID No. 104 (Escherichia coli, UniProt P61889, M85Q/R81A); assay: OHB/oxaloacetate reductase assay, Ec-Mdh R81A M85Q; conditions: pH 7, 37° C.
T2 sequence (P61889 1-312 R81A/M85Q): T1 sequence (P61889 1-312 I12V/R81A/M85Q) with V12I
Protocol: as §1, §2, §3

[3] = molecular target: T3, Escherichia coli malate dehydrogenase Ec-Mdh variant R81A M85E, SEQ ID No. 106 (Escherichia coli, UniProt P61889, M85E/R81A); assay: OHB/oxaloacetate reductase assay, Ec-Mdh R81A M85E; conditions: pH 7, 37° C.
T3 sequence (P61889 1-312 R81A/M85E): T1 sequence (P61889 1-312 I12V/R81A/M85Q) with V12I, Q85E
Protocol: as §1, §2, §3

[4] = molecular target: T4, Escherichia coli malate dehydrogenase Ec-Mdh variant R81A G179D, SEQ ID No. 112 (Escherichia coli, UniProt P61889, G179D/R81A); assay: OHB/oxaloacetate reductase assay, Ec-Mdh R81A G179D; conditions: pH 7, 37° C.
T4 sequence (P61889 1-312 R81A/G179D): T1 sequence (P61889 1-312 I12V/R81A/M85Q) with V12I, Q85M, G179D
Protocol: as §1, §2, §3

[5] = molecular target: T5, Escherichia coli malate dehydrogenase Ec-Mdh variant R81A, SEQ ID No. 102 (Escherichia coli, UniProt P61889, R81A); assay: OHB/oxaloacetate reductase assay, Ec-Mdh R81A; conditions: pH 7, 37° C.
T5 sequence (P61889 with tags, fused parts or gaps R81A): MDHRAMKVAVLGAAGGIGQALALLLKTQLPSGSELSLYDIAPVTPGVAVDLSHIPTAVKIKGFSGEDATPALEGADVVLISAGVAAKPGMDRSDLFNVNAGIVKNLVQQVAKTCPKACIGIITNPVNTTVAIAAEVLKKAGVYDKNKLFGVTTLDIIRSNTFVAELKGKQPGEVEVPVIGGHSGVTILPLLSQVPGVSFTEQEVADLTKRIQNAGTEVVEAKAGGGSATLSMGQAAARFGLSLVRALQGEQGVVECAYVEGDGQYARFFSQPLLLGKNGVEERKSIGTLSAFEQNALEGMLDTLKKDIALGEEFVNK
Protocol: as §1, §2, §3

[6] = molecular target: T6, Escherichia coli malate dehydrogenase Ec-Mdh variant R81A D86S, SEQ ID No. 1114 (Escherichia coli, UniProt P61889, D86S/R81A); assay: OHB/oxaloacetate reductase assay, Ec-Mdh R81A D86S; conditions: pH 7, 37° C.
T6 sequence (P61889 1-312 R81A/D86S): T1 sequence (P61889 1-312 I12V/R81A/M85Q) with V12I, Q85M, D86S
Protocol: as §1, §2, §3

[7] = molecular target: T7, Escherichia coli malate dehydrogenase Ec-Mdh variant R81A M85E I12V, SEQ ID No. 110 (Escherichia coli, UniProt P61889, I12V/M85E/R81A); assay: OHB/oxaloacetate reductase assay, Ec-Mdh R81A M85E I12V; conditions: pH 7, 37° C.
T7 sequence (P61889 1-312 I12V/R81A/M85E): T1 sequence (P61889 1-312 I12V/R81A/M85Q) with Q85E
Protocol: as §1, §2, §3

[8] = molecular target: T8, Escherichia coli malate dehydrogenase Ec-Mdh variant R81A 112V, SEQ ID No. 115 (Escherichia coli, UniProt P61889, I12V/R81A); assay: OHB/oxaloacetate reductase assay, Ec-Mdh R81A 112V; conditions: pH 7, 37° C.
T8 sequence (P61889 1-312 I12V/R81A): T1 sequence (P61889 1-312 I12V/R81A/M85Q) with Q85M
Protocol: as §1, §2, §3

[9] = molecular target: T9, Escherichia coli (L)-malate dehydrogenase Ec-Mdh, wild type, SEQ ID NO: 2 (Escherichia coli, UniProt P61889); assay: OHB/oxaloacetate reductase assay (NADH oxidation at 340 nm), Ec-Mdh wild type; conditions: Table 6; up to 50 mM OHB; pH 7, 37° C., 0.25 mM NADH
T9 construct: made in house; host or cells: E. coli BL21 (DE3) star
T9 sequence (P61889 1-312): T1 sequence (P61889 1-312 I12V/R81A/M85Q) with V12I, A81R, Q85M
From the text: The genes coding for (L)-malate dehydrogenase in Escherichia coli, Ec-mdh (SEQ ID NO: 1), (D)-lactate dehydrogenase in E. coli, Ec-ldhA (SEQ ID NO: 3), (L)-lactate dehydrogenase of Lactococcus lactis, Ll-ldhA (SEQ ID NO: 5), (L)-lactate dehydrogenase of Bacillus subtilis, Bs-ldh (SEQ ID NO: 7), (L)-lactate dehydrogenase of Geobacillus stearothermophilus, Gs-ldh (SEQ ID NO: 9), the two isoforms of the (L)-lactate dehydrogenase of Oryctalagus cuniculus, Oc-ldhA (SEQ ID NO: 11 and SEQ ID NO: 13), were amplified by PCR using the high-fidelity polymerase Phusion™ (Fermentas) and the primers listed in Table 1. Genomic DNAs of E. coli MG1655, L. lactis IL1403, and B. subtilis strain 168 were used as the template. The genes Oc-ldhA, and Gs-ldh were codon-optimized for expression in E. coli and synthesized by MWG Eurofins. The primers introduced restriction sites (Table 1) upstream of the start codon and downstream of the stop codon, respectively, facilitating the ligation of the digested PCR products into the corresponding sites of the pET28a+ (Novagen) expression vector using T4 DNA ligase (Fermentas). Ligation products were transformed into E. coli DH5a cells (NEB). […]

[10] = up to 0.5 mM oxaloacetate, read-out: Km (OAA)
[11] = up to 50 mM OHB, read-out: Km (OHB)

| SMILES | Km [1] [mM] | Km [2, 10] [mM] | Km [3, 10] [mM] | Km [4, 10] [mM] | Km [5, 10] [mM] | Km [6, 10] [mM] | Km [7, 10] [mM] | Km [8, 10] [mM] | Km [2, 11] [mM] | Km [3, 11] [mM] | Km [4, 11] [mM] | Km [9] [mM] | Km [5, 11] [mM] | Km [6, 11] [mM] | Km [7, 11] [mM] | Km [8, 11] [mM] |
| --- | --- | --- | --- | --- | --- | --- | --- | --- | --- | --- | --- | --- | --- | --- | --- | --- |
| O=C(O)CC(=O)C(=O)O [oxaloacetate, reference compound] | > 0.5 | > 0.5 | > 0.5 | > 0.5 | > 0.5 | > 0.5 | > 0.5 | > 0.5 |  |  |  |  |  |  |  |  |
| O=C(O)C(=O)CCO [OHB, 2-oxo-4-hydroxybutyrate] |  |  |  |  |  |  |  |  | > 50 | > 50 | > 50 | > 50 | > 50 | > 50 | > 50 | > 50 |
